{"source": "patent US10596145B2", "about": "“Heterocyclic flavone derivatives, compositions, and methods related thereto” (Emory University, priority 2012, dated 2020)", "key": {"Akt": {"system": "Akt", "assay": "Downstream Akt activation in mouse brain (p-Akt immunoblotting, p-Akt 473 ELISA)", "type": "in vivo", "details": "2.5 mg/kg/day oral, 3 weeks", "protocol": "PathScan Phospho-Akt1 (Ser473) Sandwich ELISA kit was purchased from Cell Signaling (Cat. #7160). 100 μl sample in sample diluent (supplied in the kit) was added to each well and incubated overnight at 4° C. After 4× wash with 200 ul wash buffer (supplied in the kit), 100 ul/well detection antibody was added and incubated for 1 hour at 37° C. After 4× wash, 100 μl of HRP-linked secondary antibody (supplied in the kit) was added and incubated for 30 minutes at 37° C. After a final wash, 100 μl of TMB substrate was added to each well and incubated for 10 minutes at 37° C. The reaction was stopped by adding 100 μl/well stop solution. Record the values of each well using microplate reader at 450 nm and 650 nm. The optical density was determined by the subtraction of the reading at 650 nm from the reading s at 450 nm.\nMale C57BL/6 mice aged of two months were administrated orally with 4′-DMA-7,8-DHF derivatives at a single dose of 1 mg/kg for 4 h. The control mice were injected with saline. The mice were sacrificed and brains were homogenated and ultracentrafuged. The supernatant (40 μg) was employed for SDS-PAGE and immunoblotting analysis with indicated antibodies, respectively. Male C57BL/6 mice aged of two months were administrated orally with compound (i) or (m) at the dose of 5 mg/kg/day each and compound o or p at the dose of 2.5 mg/kg/day each for 21 days. BrdU (100 mg/kg) was i. p. injected two hours before the TrkB agonist treated animals were sacrificed and the hippocampal section lysates were analyzed by immunoblotting with p-TrkB and total TrkB antibodies, p-AKT ELISA."}, "C57BL/6J mice [1]": {"system": "C57BL/6J mice", "assay": "Forced swim test", "type": "in vivo, mouse", "protocol": "Male C57BL/6J mice (6 mice/group) were orally administrated by gavage with 5 mg/kg compound (m) or compound (i) and vehicle solvent saline for 21 days and subjected to a forced swim test (6 min, immobility recorded in the last 4 min). Data are presented as mean±SEM. (n=6, ***P<0.0001 vs vehicle, Student t-test).\nForced swim test. Male C57BL/6J mice (8 mice/group) were orally administrated by gavage with 2.5 mg/kg compound o or compound p and vehicle solvent saline for 21 days and subjected to a forced swim test (6 min, immobility recorded in the last 4 min). […] Data are presented as mean±SEM.\nAdult male mice (2-3 months old) were randomly submitted to a forced swim test without a preswim. Test compounds were orally administrated by gavage for 21 days. The mice were allowed to adapt to the test room for 2 days. The mice were placed in a clear glass cylinder with a diameter of 16 cm, half-filled with clear water at 24° C."}, "C57BL/6J mice [2]": {"system": "C57BL/6J mice", "assay": "Locomotor activity assay", "type": "in vivo, mouse", "details": "2.5 mg/kg oral, 3 weeks", "protocol": "The above drug-treated mice were subjected locomotor activity at day 22. […] Data are presented as mean±SEM.\nLocomotor activity was assessed using an automated system (San Diego Instruments, La Jolla, Calif., USA) with photobeams that recorded ambulations (consecutive beam breaks). Drug-treated mice were placed in the locomotor chambers, and their activity was recorded for 2 h with 30 min interval."}, "HepG2 cells": {"system": "HepG2 cells", "assay": "In vitro cytotoxicity assay with HepG2 cells", "type": "cell-based", "details": "micronucleus and comet assays", "protocol": "HepG2 cells were treated with various concentrations of flavonoids for 24 h. The drug-treated cells were subjected to trypan blue exclusive assay. Data are presented as mean±SEM. (n=3, ***P<0.0001 vs vehicle).\nIn vitro and in vivo ADMET (ADME plus toxicity) of certain compounds were examined. […] Micronuclei formation is an important endpoint in genotoxicity study. […] Next, a Comet assay was performed with 100 μM drug-treated HepG2 cells. As a positive control, etoposide, a topoisomerase inhibitor, which causes DNA strand breaks was used."}, "[3]": {"assay": "Reactive metabolic screening assay", "type": "in vitro ADME", "details": "liver microsomal lysates", "description": "To explore these compounds' in vitro ADMET profiles, we conducted numerous in vitro assays."}}, "note": "Entries after “also recorded” stand apart in the source; their conditions may differ.", "data": [{"smiles": "Cc1nc2ccc3c(=O)cc(-c4ccc(N5CCCC5)cc4)oc3c2[nH]1", "note": "[compound o, 2-methyl-8-(4-(pyrrolidin-1-yl)phenyl)chromeno[7,8-d]imidazol-6(1H)-one]", "values": [{"measurement": "Akt activation (quantitative p-Akt ELISA)", "setting": "Akt", "result": "notably activated Akt"}, {"measurement": "reduction of immobility in forced swim test compared to vehicle control", "setting": "C57BL/6J mice [1]; 2.5 mg/kg oral once a day, 3 weeks", "result": 45, "unit": "%"}, {"measurement": "immobility in forced swim test", "setting": "C57BL/6J mice [1]; 2.5 mg/kg oral, 21 days", "result": "active in both FST and TST depression behavioral assays; also recorded: significantly decreased the immobility"}, {"measurement": "locomotor activity", "setting": "C57BL/6J mice [2]", "result": "neither compound o nor p altered the motion activity"}, {"measurement": "cytotoxicity or genotoxicity (overall conclusion)", "setting": "HepG2 cells", "result": "negligible cytotoxicity or genotoxicity"}, {"measurement": "reactive metabolite / adduct formation", "setting": "[3]", "result": "quite stable in vitro"}]}]}
